Reference: ChEMBL document CHEMBL1649463, “Capsular type and antibiotic resistance in Streptococcus agalactiae isolates from patients, ranging from newborns to the elderly, with invasive infections” (2009)
Converted amounts (≈) assume the structure as drawn.

Tested on: Streptococcus agalactiae
Experiment: Antimicrobial activity against Streptococcus agalactiae clinical isolates by agar dilution method
Format: functional

In order of falling MIC50:
1. C[C@H]1COc2c(N3CCN(C)CC3)c(F)cc3c(=O)c(C(=O)O)cn1c23.C[C@H]1COc2c(N3CCN(C)CC3)c(F)cc3c(=O)c(C(=O)O)cn1c23.O [LEVOFLOXACIN]  2 µg/mL
2. CN(C)CCn1nnnc1SCC1=C(C(=O)O)N2C(=O)[C@@H](NC(=O)Cc3csc(N)n3)[C@H]2SC1 [CEFOTIAM]  0.5 µg/mL (≈ 0.951 µM)
3. CC[C@H]1OC(=O)[C@H](C)[C@@H](O[C@H]2C[C@@](C)(OC)[C@@H](O)[C@H](C)O2)[C@H](C)[C@@H](O[C@@H]2O[C@H](C)C[C@H](N(C)C)[C@H]2O)[C@](C)(OC)C[C@@H](C)C(=O)[C@H](C)[C@@H](O)[C@]1(C)O [CLARITHROMYCIN]  0.125 µg/mL (≈ 0.167 µM)
4. CC1(C)S[C@@H]2[C@H](NC(=O)[C@H](N)c3ccccc3)C(=O)N2[C@H]1C(=O)O [AMPICILLIN]  0.125 µg/mL (≈ 0.358 µM)
5. C[C@@H](O)[C@H]1C(=O)N2C(C(=O)O)=C(S[C@@H]3CN[C@H](C(=O)N(C)C)C3)[C@H](C)[C@H]12 [MEROPENEM]  0.063 µg/mL (≈ 0.164 µM)
6. CCC[C@@H]1C[C@@H](C(=O)N[C@@H]([C@H]2O[C@H](SC)[C@H](O)[C@@H](O)[C@H]2O)[C@H](C)Cl)N(C)C1 [CLINDAMYCIN]  0.063 µg/mL (≈ 0.148 µM)
7. CC1(C)S[C@@H]2[C@H](NC(=O)[C@H](N)c3ccc(O)cc3)C(=O)N2[C@H]1C(=O)O [AMOXICILLIN]  0.063 µg/mL (≈ 0.172 µM)
8. CC1(C)S[C@@H]2[C@H](NC(=O)Cc3ccccc3)C(=O)N2[C@H]1C(=O)O [PENICILLIN G]  0.063 µg/mL (≈ 0.188 µM)
9. CC[C@H]1OC(=O)[C@H](C)[C@@H](O[C@H]2C[C@@](C)(OC)[C@@H](O)[C@H](C)O2)[C@H](C)[C@@H](O[C@@H]2O[C@H](C)C[C@H](N(C)C)[C@H]2O)[C@](C)(O)C[C@@H](C)C(=O)[C@H](C)[C@@H](O)[C@]1(C)O [ERYTHROMYCIN]  0.032 µg/mL (≈ 0.0436 µM)
10. CO/N=C(\C(=O)N[C@@H]1C(=O)N2C(C(=O)OCOC(=O)C(C)(C)C)=C(/C=C\c3scnc3C)CS[C@H]12)c1csc(N)n1 [CEFDITOREN PIVOXIL]  0.031 µg/mL (≈ 0.0499 µM)
11. C=CC1=C(C(=O)O)N2C(=O)[C@@H](NC(=O)/C(=N\O)c3csc(N)n3)[C@H]2SC1  0.031 µg/mL (≈ 0.0784 µM)
12. CO/N=C(\C(=O)N[C@@H]1C(=O)N2C(C(=O)O)=C(COC(C)=O)CS[C@H]12)c1csc(N)n1 [CEFOTAXIME]  0.031 µg/mL (≈ 0.0681 µM)
13. CC(=N)N1CC[C@H](SC2=C(C(=O)O)N3C(=O)[C@H]([C@@H](C)O)[C@H]3C2)C1  0.016 µg/mL (≈ 0.0471 µM)

`CC[C@H]1OC(=O)[C@H](C)[C@@H](O[C@H]2C[C@@](C)(OC)[C@@H](O)[C@H](C)O2)[C@H](C)[C@@H](O[C@@H]2O[C@H](C)C[C@H](N(C)C)[C@H]2O)[C@](C)(OC)C[C@@H](C)C(=O)[C@H](C)[C@@H](O)[C@]1(C)O` [CLARITHROMYCIN] and `CC[C@H]1OC(=O)[C@H](C)[C@@H](O[C@H]2C[C@@](C)(OC)[C@@H](O)[C@H](C)O2)[C@H](C)[C@@H](O[C@@H]2O[C@H](C)C[C@H](N(C)C)[C@H]2O)[C@](C)(O)C[C@@H](C)C(=O)[C@H](C)[C@@H](O)[C@]1(C)O` [ERYTHROMYCIN] cannot be ordered by MIC90: at least 64 µg/mL for the first, at least 64 µg/mL for the second.

Going from `C[C@@H](O)[C@H]1C(=O)N2C(C(=O)O)=C(S[C@@H]3CN[C@H](C(=O)N(C)C)C3)[C@H](C)[C@H]12` [MEROPENEM] to `CC(=N)N1CC[C@H](SC2=C(C(=O)O)N3C(=O)[C@H]([C@@H](C)O)[C@H]3C2)C1`, the MIC90 falls from 0.063 µg/mL (≈ 0.164 µM) to 0.031 µg/mL (≈ 0.0913 µM) (2-fold).

Compared with `CCC[C@@H]1C[C@@H](C(=O)N[C@@H]([C@H]2O[C@H](SC)[C@H](O)[C@@H](O)[C@H]2O)[C@H](C)Cl)N(C)C1` [CLINDAMYCIN], `CC1(C)S[C@@H]2[C@H](NC(=O)[C@H](N)c3ccccc3)C(=O)N2[C@H]1C(=O)O` [AMPICILLIN] is lower in MIC90: at least 64 µg/mL for the first, 0.125 µg/mL (≈ 0.358 µM) for the second.

First: CO/N=C(\C(=O)N[C@@H]1C(=O)N2C(C(=O)OCOC(=O)C(C)(C)C)=C(/C=C\c3scnc3C)CS[C@H]12)c1csc(N)n1 [CEFDITOREN PIVOXIL]
Second: CO/N=C(\C(=O)N[C@@H]1C(=O)N2C(C(=O)O)=C(COC(C)=O)CS[C@H]12)c1csc(N)n1 [CEFOTAXIME]
The MIC90 of the first is 2-fold lower: 0.031 µg/mL (≈ 0.0499 µM) for the first, 0.063 µg/mL (≈ 0.138 µM) for the second.

Compared with `C[C@H]1COc2c(N3CCN(C)CC3)c(F)cc3c(=O)c(C(=O)O)cn1c23.C[C@H]1COc2c(N3CCN(C)CC3)c(F)cc3c(=O)c(C(=O)O)cn1c23.O` [LEVOFLOXACIN], `CN(C)CCn1nnnc1SCC1=C(C(=O)O)N2C(=O)[C@@H](NC(=O)Cc3csc(N)n3)[C@H]2SC1` [CEFOTIAM] is lower in MIC90: at least 64 µg/mL for the first, 0.5 µg/mL (≈ 0.951 µM) for the second.

Compared with `CC1(C)S[C@@H]2[C@H](NC(=O)[C@H](N)c3ccc(O)cc3)C(=O)N2[C@H]1C(=O)O` [AMOXICILLIN], `CC1(C)S[C@@H]2[C@H](NC(=O)Cc3ccccc3)C(=O)N2[C@H]1C(=O)O` [PENICILLIN G] is 2-fold lower in MIC90: 0.125 µg/mL (≈ 0.342 µM) for the first, 0.063 µg/mL (≈ 0.188 µM) for the second.

For `C=CC1=C(C(=O)O)N2C(=O)[C@@H](NC(=O)/C(=N\O)c3csc(N)n3)[C@H]2SC1`, the MIC90 was 0.063 µg/mL (≈ 0.159 µM).
